Key:
JAK3 = molecular target: T1, JAK3 (Homo sapiens, UniProt P52333); experiment: JAK3 enzymatic activity assay (Z'-LYTE Biochemical Kinase Assay, 2 hr preincubation at 4° C.); conditions: cell free, 1% DMSO, read-out: JAK3 activity cell free (2 hr preincubation at (4° C.) Kj)
T1 construct: purchased Invitrogen, Madison, Wis
T1 sequence (P52333 1-1124): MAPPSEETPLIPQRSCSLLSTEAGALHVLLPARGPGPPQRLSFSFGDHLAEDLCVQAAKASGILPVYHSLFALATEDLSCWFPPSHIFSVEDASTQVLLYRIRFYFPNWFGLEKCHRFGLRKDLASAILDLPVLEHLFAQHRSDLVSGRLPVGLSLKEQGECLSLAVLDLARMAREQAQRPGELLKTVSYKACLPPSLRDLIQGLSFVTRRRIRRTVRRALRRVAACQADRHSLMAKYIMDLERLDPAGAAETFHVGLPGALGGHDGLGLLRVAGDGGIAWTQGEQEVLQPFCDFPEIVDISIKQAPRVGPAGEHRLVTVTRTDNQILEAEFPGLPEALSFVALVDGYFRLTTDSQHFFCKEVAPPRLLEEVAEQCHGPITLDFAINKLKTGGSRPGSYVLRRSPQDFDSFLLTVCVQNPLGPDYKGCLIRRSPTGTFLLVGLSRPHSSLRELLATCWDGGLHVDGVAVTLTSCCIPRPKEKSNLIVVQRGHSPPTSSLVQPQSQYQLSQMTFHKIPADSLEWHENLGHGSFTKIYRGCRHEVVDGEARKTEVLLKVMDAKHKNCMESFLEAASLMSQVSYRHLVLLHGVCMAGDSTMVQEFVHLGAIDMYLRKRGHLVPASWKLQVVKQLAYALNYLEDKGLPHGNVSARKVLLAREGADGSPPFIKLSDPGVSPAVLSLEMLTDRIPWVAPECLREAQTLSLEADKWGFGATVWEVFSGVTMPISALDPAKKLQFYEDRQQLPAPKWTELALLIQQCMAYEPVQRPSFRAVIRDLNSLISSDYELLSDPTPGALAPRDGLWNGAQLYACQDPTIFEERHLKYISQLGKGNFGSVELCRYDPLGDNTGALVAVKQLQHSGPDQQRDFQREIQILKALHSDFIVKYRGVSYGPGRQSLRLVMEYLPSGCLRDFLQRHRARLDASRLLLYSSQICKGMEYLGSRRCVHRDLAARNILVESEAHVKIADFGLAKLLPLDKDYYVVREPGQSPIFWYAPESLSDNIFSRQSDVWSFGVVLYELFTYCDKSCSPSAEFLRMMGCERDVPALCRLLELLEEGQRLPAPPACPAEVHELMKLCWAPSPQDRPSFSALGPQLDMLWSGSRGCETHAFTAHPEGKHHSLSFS
Procedure: The assays were performed according to manufacturer's protocols, except that prior to the kinase reaction they were pre-incubated for 2 hours at 4° C., in order to be able to assay for time-dependent inhibition.
In addition to the compound, each 10 μL JAK3 kinase reaction contained 0.43-1.89 ng JAK3 and 2 μM peptide substrate in 50 mM HEPES (pH 7.5), 0.01% BRIJ-35, 10 mM MgCl2 and 1 mM EGTA. The kinase reaction was allowed to proceed for 1 hour.

NALM-6 cells = experiment: Proliferation of NALM-6 cells (cell proliferation index, flow cytometry); conditions: Homo sapiens, B cells, outcome-based, read-out: IC50 Proliferation NALM-6 cells (ALL)
Procedure: Cell proliferation of the human B cell precursor leukemia tumor cell line NALM-6 was measured by a cell proliferation index assay. This assay was based on the dilution rate of a fluorescent membrane marker which is directly linked to the cell division. Briefly, the assay was performed by loading the cells with a non-toxic fluorescent phospholipid analog before the seeding. The probe inserts stably into the plasmic membrane and was distributed between daughter cells after division. Flow cytometry analysis of the fluorescent probe was performed directly after the loading of the cells and after 96 hours of culture. The dilution rate of the fluorescent probe at the single cell level was directly correlated to the number of cell divisions. All experiments were performed in triplicate.
Detection of cellular events was performed in triplicate in 96 well-plates after 72 hours of treatment by automated flow cytometry. Non-linear regressions were performed with GraphPad Prism 4.01 software.
Cells were previously thawed and amplified in standard culture conditions (37° C., 5% CO2). NALM-6 cells were cultivated in RPMI 1640+10% inactivated Fetal Bovine Serum. […]
Day 4: After 72 hours of treatment, the cells were analyzed by automated flow cytometry.

Daudi cells = experiment: Proliferation of Daudi cells (Cell Titer-Glo, 96 h); conditions: Homo sapiens, B cells, outcome-based, read-out: IC50 Proliferation Daudi cells (Burkitt's Lymphoma)
Procedure: Growth inhibitory activity against the human tumor cell lines, RS4; 11 and Daudi was determined using Promega's Cell Titer-Glo® assay. The human tumor cells were placed in a 96-well microculture plate (Costar white, flat bottom #3917) in a total volume of 90 μL/well. After 24 hours of incubation in a humidified incubator at 37° C. with 5% CO2 and 95% air, […] serially diluted test agents in growth medium were added to each well. After 96 total hours of culture in a CO2 incubator, the plated cells and Cell Titer-Glo® (Promega # G7571) reagents were brought to room temperature to equilibrate for 30 minutes. 100 μL of Cell Titer-Glo® reagent was added to each well. The plate was shaken for 2 minutes and then left to equilibrate for 10 minutes before reading luminescence on the Tecan GENios microplate reader.
Percent inhibition of cell growth was calculated relative to untreated control wells. All tests were performed in duplicate at each concentration level. The IC50 value for the test agents was estimated using Prism 3.03 by curve-fitting the data using the following four parameter-logistic equation: […]

JAK3 pathway = experiment: Cell based JAK3 pathway inhibition (STAT6-bla RA1 cells, IL-4 activated)
Procedure: 32 μL of the cell suspension (25,000 cells) was added to each well of a 384-well TC-Treated assay plate. Cells in Assay Media were incubated for 16-24 hours in the plate at 37° C./5% CO2 in a humidified incubator. 4 μL of a 10× serial dilution of a compound of the invention was added to appropriate wells of the plate and pre-incubated at 37° C./5% CO2 in a humidified incubator with cells for 30 minutes. 4 μL of 10× control activator IL-4 at the predetermined EC80 concentration was added to wells containing the compound of the invention. The plate was incubated for 5 hours at 37° C./5% CO2 in a humidified incubator. 8 μL of 1 μM Substrate Loading Solution was added to each well and the plate was incubated for 2 hours at room temperature. The plate was read on a fluorescence plate reader.

## O=C(CN1CCOCC1)Nc1cccc(-c2nc(-c3c[nH]c(C(=O)N4CCCC4)c3)cs2)c1 [7A, 2-morpholino-N-(3-(4-(5-(pyrrolidine-1-carbonyl)-1H-pyrrol-3-yl)thiazol-2-yl)phenyl)acetamide]
JAK3
  Ki: 1100 to 10000 nM
NALM-6 cells
  IC50: 480 nM
Daudi cells
  IC50: 159 nM
JAK3 pathway; STAT6-bla RA1 cells, IL-4 at EC80
  IC50: 110 to 1000 nM
JAK3 pathway; cell based JAK3 pathway inhibition, maximal inhibition, read-out: Max % Inh
  Emax: 75%

— patent US8937065B2, “Compositions and methods for modulating a kinase” (Clevexel Pharma, priority 2011, dated 2015)
